Results taken from patent US4442044A, “Process for preparing monoesters and diesters of N-alkyl substituted amino methyl phosphonic acid” (priority 1983, dated 1984).

How the values were obtained:
Type in all cases: in vivo
[1] = test system: Morningglory; assay: pre-emergent herbicidal activity, soil incorporation; settings: Table III, 2 WAT, 11.2 kg/h
From the text: (§1) A good grade of top soil is placed in aluminum pans and compacted to a depth of 0.95 to 1.27 cm. from the top of each pan. A predetermined number of seeds or vegetative propagules of each of several plant species are placed on top of the soil in each pan and then pressed down. Herbicidal compositions prepared as in the previous example are applied by admixture with or incorporation in the top layer of soil.
(§2) In this method, the soil required to cover the seeds and propagules is weighed and admixed with a herbicidal composition containing a known amount of the active ingredient (compound of this invention). The pans are then filled with the admixture and leveled. Watering is carried out by permitting the soil in the pans to absorb moisture through apertures in the pan bottoms. The seed and propagule containing pans are placed on a wet sand bench and maintained for approximately two weeks under ordinary conditions of sunlight and watering. At the end of this period, the number of emerged plants of each species is noted and compared to an untreated control.
(§3) The pre-emergent herbicidal activity index used below is based upon average percent control of each species as follows: […]

[2] = test system: Canada Thistle; assay: as above; settings: Table III, 2 WAT, 11.2 kg/h
From the text: as §1, §2, §3

[3] = test system: Downy Brome; assay: as above; settings: Table III, 2 WAT, 11.2 kg/h
From the text: as §1, §2, §3

[4] = test system: Yellow Nutsedge; assay: as above; settings: Table III, 2 WAT, 11.2 kg/h
From the text: as §1, §2, §3

[5] = test system: Velvetleaf; assay: as above; settings: Table III, 2 WAT, 11.2 kg/h
From the text: as §1, §2, §3

[6] = test system: Smartweed; assay: as above; settings: Table III, 2 WAT, 11.2 kg/h
From the text: as §1, §2, §3

[7] = test system: Cocklebur; assay: as above; settings: Table III, 2 WAT, 11.2 kg/h
From the text: as §1, §2, §3

[8] = test system: Lambsquarters; assay: as above; settings: Table III, 2 WAT, 11.2 kg/h
From the text: as §1, §2, §3

[9] = test system: Barnyardgrass; assay: as above; settings: Table III, 2 WAT, 11.2 kg/h
From the text: as §1, §2, §3

[10] = test system: Johnsongrass; assay: as above; settings: Table III, 2 WAT, 11.2 kg/h
From the text: as §1, §2, §3

[11] = test system: Quackgrass; assay: as above; settings: Table III, 2 WAT, 11.2 kg/h
From the text: as §1, §2, §3

[12] = test system: Wheat; assay: post-emergent herbicidal activity, greenhouse; settings: Table II
Procedure, shortened: (§4)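 Seeds or propagules sown in compacted top soil, grown 2–3 weeks in greenhouse, then sprayed with compound solution/suspension containing ~0.4% emulsifier at tabulated rates. Injury scored visually versus untreated controls at ~2 and 4 weeks after treatment, expressed as a herbicidal activity index.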

[13] = test system: Morningglory; assay: post-emergent herbicidal activity, greenhouse
Procedure, shortened: as §4

[14] = test system: Hemp Sesbania; assay: post-emergent herbicidal activity, greenhouse; settings: Table II
Procedure, shortened: as §4

[15] = test system: Rice; assay: post-emergent herbicidal activity, greenhouse; settings: Table II
Procedure, shortened: as §4

[16] = test system: Canada Thistle; assay: post-emergent herbicidal activity, greenhouse; settings: Table I, 4 WAT
Procedure, shortened: as §4

[17] = test system: Soybean; assay: post-emergent herbicidal activity, greenhouse; settings: Table II
Procedure, shortened: as §4

[18] = test system: Downy Brome; assay: post-emergent herbicidal activity, greenhouse
Procedure, shortened: as §4

[19] = test system: Yellow Nutsedge; assay: post-emergent herbicidal activity, greenhouse; settings: Table I, 4 WAT
Procedure, shortened: as §4

[20] = test system: Velvetleaf; assay: post-emergent herbicidal activity, greenhouse
Procedure, shortened: as §4

[21] = test system: Wild Buckwheat; assay: post-emergent herbicidal activity, greenhouse; settings: Table II
Procedure, shortened: as §4

[22] = test system: Smartweed; assay: post-emergent herbicidal activity, greenhouse
Procedure, shortened: as §4

[23] = test system: Cocklebur; assay: post-emergent herbicidal activity, greenhouse
Procedure, shortened: as §4

[24] = test system: Panicum Spp; assay: post-emergent herbicidal activity, greenhouse; settings: Table II
Procedure, shortened: as §4

[25] = test system: Lambsquarters; assay: post-emergent herbicidal activity, greenhouse
Procedure, shortened: as §4

[26] = test system: Sugar Beet; assay: post-emergent herbicidal activity, greenhouse; settings: Table II
Procedure, shortened: as §4

[27] = test system: Sorghum; assay: post-emergent herbicidal activity, greenhouse; settings: Table II
Procedure, shortened: as §4

[28] = test system: Barnyardgrass; assay: post-emergent herbicidal activity, greenhouse
Procedure, shortened: as §4

[29] = test system: Johnsongrass; assay: post-emergent herbicidal activity, greenhouse; settings: Table I, 4 WAT
Procedure, shortened: as §4

[30] = test system: Quackgrass; assay: post-emergent herbicidal activity, greenhouse; settings: Table I, 4 WAT
Procedure, shortened: as §4

[31] = 2** WAT, 0.056 kg/h, applied in 100 GPA THF
[32] = Table II, 2** WAT, 0.056 kg/h, applied in 100 GPA THF

Compound: CCOC(=O)CNCP(=O)(O)OC(C#N)CC (stereo not drawn) [Example 8, glycine, N-[[(1-cyanopropoxy)hydroxyphosphinyl]methyl],ethyl ester]
- pre-emergent herbicidal activity index [1]: 0 (1-24% control)
- pre-emergent herbicidal activity index [2]: 3 (75-100% control)
- pre-emergent herbicidal activity index [3]: 0 (1-24% control)
- pre-emergent herbicidal activity index [4]: 1 (25-49% control)
- pre-emergent herbicidal activity index [5]: 0 (1-24% control)
- pre-emergent herbicidal activity index [6]: 0 (1-24% control)
- pre-emergent herbicidal activity index [7]: 0 (1-24% control)
- pre-emergent herbicidal activity index [8]: 0 (1-24% control)
- pre-emergent herbicidal activity index [9]: 0 (1-24% control)
- pre-emergent herbicidal activity index [10]: 2 (50-74% control)
- pre-emergent herbicidal activity index [11]: 2 (50-74% control)
- post-emergent herbicidal activity index [12, 31]: 1 (25-49% control)
- post-emergent herbicidal activity index ([12]; 4 WAT, 1.12 kg/h): 4 (100% control)
- post-emergent herbicidal activity index ([12]; 4 WAT, 5.6 kg/h): 4 (100% control)
- post-emergent herbicidal activity index ([13]; Table I, 4 WAT, 5.6 kg/h): 2 (50-74% control)
- post-emergent herbicidal activity index ([13]; Table I, 4 WAT, 11.2 kg/h): 3 (75-99% control)
- post-emergent herbicidal activity index [13, 32]: 0 (0-24% control)
- post-emergent herbicidal activity index ([13]; Table II, 4 WAT, 1.12 kg/h): 3 (75-99% control)
- post-emergent herbicidal activity index ([13]; Table II, 4 WAT, 5.6 kg/h): 3 (75-99% control)
- post-emergent herbicidal activity index [14, 31]: 0 (0-24% control)
- post-emergent herbicidal activity index ([14]; 4 WAT, 1.12 kg/h): 2 (50-74% control)
- post-emergent herbicidal activity index ([14]; 4 WAT, 5.6 kg/h): 4 (100% control)
- post-emergent herbicidal activity index [15, 31]: 0 (0-24% control)
- post-emergent herbicidal activity index ([15]; 4 WAT, 1.12 kg/h): 3 (75-99% control)
- post-emergent herbicidal activity index ([15]; 4 WAT, 5.6 kg/h): 4 (100% control)
- post-emergent herbicidal activity index ([16]; 5.6 kg/h): 4 (100% control)
- post-emergent herbicidal activity index ([16]; 11.2 kg/h): 4 (100% control)
- post-emergent herbicidal activity index [17, 31]: 0 (0-24% control)
- post-emergent herbicidal activity index ([17]; 4 WAT, 1.12 kg/h): 3 (75-99% control)
- post-emergent herbicidal activity index ([17]; 4 WAT, 5.6 kg/h): 4 (100% control)
- post-emergent herbicidal activity index ([18]; Table I, 4 WAT, 5.6 kg/h): 3 (75-99% control)
- post-emergent herbicidal activity index ([18]; Table I, 4 WAT, 11.2 kg/h): 4 (100% control)
- post-emergent herbicidal activity index [18, 32]: 0 (0-24% control)
- post-emergent herbicidal activity index ([18]; Table II, 4 WAT, 1.12 kg/h): 3 (75-99% control)
- post-emergent herbicidal activity index ([18]; Table II, 4 WAT, 5.6 kg/h): 3 (75-99% control)
- post-emergent herbicidal activity index ([19]; 5.6 kg/h): 3 (75-99% control)
- post-emergent herbicidal activity index ([19]; 11.2 kg/h): 4 (100% control)
- post-emergent herbicidal activity index ([20]; Table I, 4 WAT, 5.6 kg/h): 3 (75-99% control)
- post-emergent herbicidal activity index ([20]; Table I, 4 WAT, 11.2 kg/h): 4 (100% control)
- post-emergent herbicidal activity index [20, 32]: 0 (0-24% control)
- post-emergent herbicidal activity index ([20]; Table II, 4 WAT, 1.12 kg/h): 3 (75-99% control)
- post-emergent herbicidal activity index ([20]; Table II, 4 WAT, 5.6 kg/h): 3 (75-99% control)
- post-emergent herbicidal activity index [21, 31]: 0 (0-24% control)
- post-emergent herbicidal activity index ([21]; 4 WAT, 1.12 kg/h): 3 (75-99% control)
- post-emergent herbicidal activity index ([21]; 4 WAT, 5.6 kg/h): 4 (100% control)
- post-emergent herbicidal activity index ([22]; Table I, 4 WAT, 5.6 kg/h): 4 (100% control)
- post-emergent herbicidal activity index ([22]; Table I, 4 WAT, 11.2 kg/h): 4 (100% control)
- post-emergent herbicidal activity index [22, 32]: 0 (0-24% control)
- post-emergent herbicidal activity index ([22]; Table II, 4 WAT, 1.12 kg/h): 3 (75-99% control)
- post-emergent herbicidal activity index ([22]; Table II, 4 WAT, 5.6 kg/h): 4 (100% control)
- post-emergent herbicidal activity index ([23]; Table I, 4 WAT, 5.6 kg/h): 3 (75-99% control)
- post-emergent herbicidal activity index ([23]; Table I, 4 WAT, 11.2 kg/h): 4 (100% control)
- post-emergent herbicidal activity index [23, 32]: 0 (0-24% control)
- post-emergent herbicidal activity index ([23]; Table II, 4 WAT, 1.12 kg/h): 3 (75-99% control)
- post-emergent herbicidal activity index ([23]; Table II, 4 WAT, 5.6 kg/h): 4 (100% control)
- post-emergent herbicidal activity index [24, 31]: 0 (0-24% control)
- post-emergent herbicidal activity index ([24]; 4 WAT, 1.12 kg/h): 4 (100% control)
- post-emergent herbicidal activity index ([24]; 4 WAT, 5.6 kg/h): 4 (100% control)
- post-emergent herbicidal activity index ([25]; Table I, 4 WAT, 5.6 kg/h): 4 (100% control)
- post-emergent herbicidal activity index ([25]; Table I, 4 WAT, 11.2 kg/h): 4 (100% control)
- post-emergent herbicidal activity index [25, 32]: 0 (0-24% control)
- post-emergent herbicidal activity index ([25]; Table II, 4 WAT, 1.12 kg/h): 3 (75-99% control)
- post-emergent herbicidal activity index ([25]; Table II, 4 WAT, 5.6 kg/h): 4 (100% control)
- post-emergent herbicidal activity index [26, 31]: 0 (0-24% control)
- post-emergent herbicidal activity index ([26]; 4 WAT, 1.12 kg/h): 4 (100% control)
- post-emergent herbicidal activity index ([26]; 4 WAT, 5.6 kg/h): 4 (100% control)
- post-emergent herbicidal activity index [27, 31]: 0 (0-24% control)
- post-emergent herbicidal activity index ([27]; 4 WAT, 1.12 kg/h): 4 (100% control)
- post-emergent herbicidal activity index ([27]; 4 WAT, 5.6 kg/h): 4 (100% control)
- post-emergent herbicidal activity index ([28]; Table I, 4 WAT, 5.6 kg/h): 3 (75-99% control)
- post-emergent herbicidal activity index ([28]; Table I, 4 WAT, 11.2 kg/h): 4 (100% control)
- post-emergent herbicidal activity index [28, 32]: 1 (25-49% control)
- post-emergent herbicidal activity index ([28]; Table II, 4 WAT, 1.12 kg/h): 4 (100% control)
- post-emergent herbicidal activity index ([28]; Table II, 4 WAT, 5.6 kg/h): 4 (100% control)
- post-emergent herbicidal activity index ([29]; 5.6 kg/h): 3 (75-99% control)
- post-emergent herbicidal activity index ([29]; 11.2 kg/h): 4 (100% control)
- post-emergent herbicidal activity index ([30]; 5.6 kg/h): 4 (100% control)
- post-emergent herbicidal activity index ([30]; 11.2 kg/h): 4 (100% control)
